Like-named read-outs stand apart in the source and are kept apart here.
Assays:
conscious dogs = assay: Hypotensive effects in conscious dogs before and after furosemide; type: in vivo
Description: (§1) The hypotensive effects of 2-butyl-4-chloro-1-[2'-(1H-tetrazol-5-yl)biphenyl-4-yl)methyl]-5-hydroxymethylimidazole sodium salt were compared before and after furosemide administration to conscious dogs. […] Plasma renin activity (PRA) in these animals was 1.5±0.5 ng AI/ml/hr. Four days later, furosemide was given to three of these dogs at 10 mg/kg im at 18 and 2 hours before the experiment and increased PRA to 19.9±7.2 ng AI/ml/hr. […] Thus a combined therapy of these two classes of drugs will be likely to increase the response rate to therapy among hypertensive patients.

pressor response to AII = assay: Inhibition of the pressor response to AII in conscious dogs; type: in vivo
Description: as §1

AII receptor = assay: Angiotensin II receptor binding (displacement of 3H-AII); settings: read-out: Angiotensin II Receptor Binding IC50, rat adrenal cortical microsomes, 2 nM 3H-AII, 1 hour, room temperature
In short: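 The receptor source was rat adrenal cortical microsomes in Tris buffer, incubated with 2 nM ³H-AII plus or minus test compound for 1 h at room temperature. Bound and free ligand were separated by rapid filtration on glass-fibre filters. Filter-bound ³H-AII was counted by scintillation.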

Renal Hypertensive Rats = assay: Antihypertensive effects in renal hypertensive rats; type: in vivo; settings: Rattus norvegicus; for minimal effective dose at 3 mg/kg / minimal effective dose at 30 mg/kg: Table 26; for minimal effective dose at 30 mg/kg: oral
In short: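 Renal hypertensive rats (renin-driven AII elevation) dosed orally at 100 mg/kg and/or i.v. via jugular cannula at 10 mg/kg; a second set used 30 mg/kg oral and 3 mg/kg i.v. Arterial pressure recorded continuously via carotid cannula and compared with pretreatment levels.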

AII = settings: cited from earlier work
[1] = system: renal vasoconstrictor effect of NSAID; settings: cited from earlier work
[2] = system: Plasma renin activity (PRA); assay: Plasma renin activity in conscious dogs; type: in vivo; settings: three dogs, furosemide 10 mg/kg im at 18 and 2 hours before; PRA before 1.5±0.5
Description: as §1

| Structure (SMILES) | IC50 (AII receptor; Table 26) | minimal effective dose at 3 mg/kg (Renal Hypertensive Rats; intravenous) | minimal effective dose at 30 mg/kg (Renal Hypertensive Rats) | further results |
| --- | --- | --- | --- | --- |
| CCCCc1nc(Cl)c(CO)n1Cc1ccc(-c2ccccc2-c2nnn[nH]2)cc1 |  |  |  | blood pressure, after furosemide (conscious dogs; conscious dogs, cumulative iv 0.3 to 3 mg/kg after furosemide 10 mg/kg im at 18 and 2 hours before): caused a significant decrease in blood pressure in a dose-dependent manner; blood pressure, before furosemide (conscious dogs; normotensive conscious dogs, cumulative iv 0.3 to 3 mg/kg, n=4): did not lower blood pressure; inhibition of pressor response to AII, before furosemide (pressor response to AII; cumulative iv 0.3 to 3 mg/kg, AII 0.1 μg/kg iv, 10 min post dose): effective in inhibiting the pressor response to AII; inhibition of pressor response to AII, after furosemide (pressor response to AII; iv, after furosemide 10 mg/kg im): inhibited the pressor response to AII at the two higher doses |
| CCCCc1nc(Cl)c(C=NNC2=NCCN2)n1Cc1ccc(-c2ccccc2-c2nnn[nH]2)cc1 [Example 327A] | 290 nM | < 3 mg/kg | < 30 mg/kg |  |
| CCCCc1nc(Cl)c(C=NNC2=NCCN2)n1Cc1cccc(-c2ccccc2-c2nnn[nH]2)c1 [Example 327D] | 5200 nM | > 3 mg/kg | > 30 mg/kg |  |
| CCCc1nc(C(=O)O)c(C(=O)O)n1Cc1ccc(-c2ccccc2C(=O)O)cc1 [Example 328] | 6700 nM | < 3 mg/kg | < 30 mg/kg |  |
| CCCCc1nc(CO)c(Cl)n1Cc1ccc(-c2ccccc2-c2[nH]nnc2C(=O)OC)cc1 [Example 339, 2-n-Butyl-5-chloro-1-[(2'-(5-carbomethoxy-1,2,3-triazol-4-yl)biphenyl-4-yl)-methyl]-5-hydroxymethylimidazole] | 1700 nM | < 3 mg/kg | < 30 mg/kg |  |
| CCCCc1nc(Cl)c(CN2CCN(c3ccccc3OC)CC2)n1Cc1ccc(-c2ccccc2C(=O)O)cc1 [Example 346, 2-n-Butyl-1-[(2'-carboxybiphenyl-4-yl)methyl]-4-chloro-5-[(1-(2-methoxyphenyl)piperazin-4-yl)methyl]imidazole] |  |  |  | IC50 (AII receptor; Table 25): 740 nM; minimal effective dose at 10 mg/kg (Renal Hypertensive Rats; Table 25, intravenous, 10 mg/kg or less): < 10 mg/kg |
| CCCCc1nc(C(=O)N2CCN(c3ccccc3OC)CC2)c(Cl)n1Cc1ccc(-c2ccccc2-c2nnn[nH]2)cc1 [Example 348] | 1300 nM | < 3 mg/kg | > 30 mg/kg |  |
| CNCC(=O)N[C@@H](CCCN=C(N)N)C(=O)N[C@H](C(=O)N[C@@H](Cc1ccc(O)cc1)C(=O)N[C@H](C(=O)N[C@@H](Cc1cnc[nH]1)C(=O)N1CCC[C@H]1C(=O)N[C@@H](C)C(=O)O)C(C)C)C(C)C [Saralasin, [Sar^1, Ala^8] AII] |  |  |  | antagonism of the actions of AII (AII; Pals et al. 1971, pithed rats): one of the most potent competitive antagonists of the actions of AII; arterial pressure (AII; mammals and man, elevated pressure dependent on circulating AII): lower arterial pressure in mammals and man; oral efficacy (AII; oral doses): oral doses being ineffective; pressor effects (AII; when the pressure is not sustained by AII): generally elicits pressor effects when the pressure is not sustained by AII; effect on renal vasoconstrictor effect of indomethacin and meclofenamate ([1]; dogs): inhibit the renal vasoconstrictor effect of indomethacin and meclofenamate in dogs |
| C[C@H](CS)C(=O)N1CCC[C@H]1C(=O)O [captopril, Captopril] |  |  |  | effect on renal vasoconstrictor effect of indomethacin ([1]; dogs with non-hypotensive hemorrhage): reverse the renal vasoconstrictor effect of indomethacin in dogs |
| NS(=O)(=O)c1cc(C(=O)O)c(NCc2ccco2)cc1Cl [furosemide] |  |  |  | Plasma renin activity (PRA) after furosemide [2]: 19.9±7.2 ng AI/ml/hr |

The next lines start with results.

| IC50 (AII receptor; Table 26) | Structure (SMILES) | minimal effective dose at 3 mg/kg (Renal Hypertensive Rats; intravenous) | minimal effective dose at 30 mg/kg (Renal Hypertensive Rats) | further results |
| --- | --- | --- | --- | --- |
| 660 nM | CCCCc1nc(Cl)c(C=NNS(=O)(=O)c2ccccc2)n1Cc1ccc(-c2ccccc2-c2nnn[nH]2)cc1 [Example 327, 2-n-Butyl-4-chloro-1-[(2'-(1H-tetrazol-5-yl)biphenyl-4-yl)methyl]-imidazole-5-carboxaldehyde, benzenesulfonylhydrazone] | > 3 mg/kg | > 30 mg/kg |  |
| 76 nM | CCCc1nc(C(=O)O)c(C(=O)O)n1Cc1ccc(-c2ccccc2-c2nnn[nH]2)cc1 [Example 329] | < 3 mg/kg | < 30 mg/kg |  |
| 51 nM | CCCc1nc(C(=O)OC)c(C(=O)OC)n1Cc1ccc(-c2ccccc2-c2nnn[nH]2)cc1 [Example 333, 4,5-Dicarbomethoxy-2-n-propyl-1-[(2'-(1H-tetrazol-5-yl)biphenyl-4-yl)methyl]imidazole] | < 3 mg/kg | < 30 mg/kg |  |
| 15 nM | CCCc1nc(C(=O)OC)c(CO)n1Cc1ccc(-c2ccccc2-c2nnn[nH]2)cc1 [Example 334, 4-Carbomethoxy-5-hydroxymethyl-2-n-propyl-1-[(2'-(1H-tetrazol-5-yl)biphenyl)-methyl]imidazole] | < 3 mg/kg | < 30 mg/kg |  |
| 260 nM | CCCc1nc(C(=O)O)c(CO)n1Cc1ccc(-c2ccccc2-c2nnn[nH]2)cc1 [Example 335, 5-Hydroxymethyl-2-n-propyl-1-[(2'-(1H-tetrazol-5-yl)biphenyl)methyl]-imidazole-4-carboxylic acid] | < 3 mg/kg | < 30 mg/kg |  |
| 280 nM | CCCCc1nc(Cl)c(CO)n1Cc1ccc(-c2ccccc2-c2[nH]nnc2C#N)cc1 [Example 336] | > 3 mg/kg | > 30 mg/kg |  |
| 760 nM | CCCCc1nc(CO)c(Cl)n1Cc1ccc(-c2ccccc2-c2nn[nH]c2C#N)cc1 [Example 337, 2-n-Butyl-5-chloro-1-[(2'-(5-cyano-1,2,3-triazol-4-yl)biphenyl-4-yl)methyl]-4-hydroxymethylimidazole] | < 3 mg/kg | > 30 mg/kg |  |
| 260 nM | CCCCc1nc(Cl)c(CO)n1Cc1ccc(-c2ccccc2-c2nn[nH]c2C(=O)OC)cc1 [Example 338, 2-n-Butyl-4-chloro-1-[(2'-(5-carbomethoxy-1,2,3-triazol-4-yl)biphenyl-4-yl)methyl]-5-hydroxymethylimidazole] | > 3 mg/kg | > 30 mg/kg |  |
| 370 nM | CCCCc1nc(Cl)c(CO)n1Cc1ccc(-c2ccccc2-c2n[nH]c(C(F)(F)F)n2)cc1 [Example 340, 2-n-Butyl-4-chloro-5-hydroxymethyl-1-[(2'-(5-trifluoromethyl-1,2,4-triazol-3-yl)biphenyl-4-yl)methyl]imidazole] | < 3 mg/kg | < 30 mg/kg |  |
| 510 nM | CCCCc1nc(Cl)c(CO)n1Cc1ccc(-c2c(C#N)cccc2-c2nnn[nH]2)cc1 [Example 343, 2-n-Butyl-4-chloro-1-[(2'-cyano-6'-(1H-tetrazol-5-yl)biphenyl-4-yl)methyl]-5-hydroxymethylimidazole] | < 3 mg/kg | > 30 mg/kg |  |
| 160 nM | CCCCc1nc(Cl)c(-c2nnn[nH]2)n1Cc1ccc(-c2ccccc2-c2nnn[nH]2)cc1 [Example 344, 2-n-Butyl-4-chloro-5-(1H-tetrazol-5-yl)-1-[(2'-(1H-tetrazol-5-yl)biphenyl-4-yl)methyl]-imidazole] | < 3 mg/kg | < 30 mg/kg |  |
| 1100 nM | CCCCc1nc(Cl)c(-c2[nH]nnc2C(=O)O)n1Cc1ccc(-c2ccccc2-c2nnn[nH]2)cc1 [Example 345, 2-n-Butyl-5-(4-carboxy-1,2,3-triazol-5-yl)-4-chloro-1-[(2'-(1H-tetrazol-5-yl)biphenyl-4-yl)methyl]imidazole] | < 3 mg/kg |  |  |
| 200 nM | CCCCc1nc(Cl)c(C(=O)N2CCN(c3ccccc3OC)CC2)n1Cc1ccc(-c2ccccc2-c2nnn[nH]2)cc1 [Example 347, 2-n-Butyl-4-chloro-5-[4-(2-methoxyphenyl)piperazin-1-ylcarbonyl]-1-[(2'-(1H-tetrazol-5-yl)biphenyl-4-yl)methyl]imidazole] | < 3 mg/kg | < 30 mg/kg |  |
